The test system of test [1] is kidneys of Pkd1^fl/fl; Pax8^rtTA; TetO-cre mice. Nature of the test: Ki67 staining of kidney sections (proliferation). The test is classed as in vivo, mouse. Particulars: 30 mg/kg, vs DMSO-treated mice. From the text:
FIG. 3A, FIG. 3B, FIG. 3C, and FIG. 3D show cell proliferation is reduced by VX-809. (FIG. 3A-FIG. 3B) Proliferation in kidneys of Pkd1^fl/fl; Pax8^rtTA; TetO-cre mice. Representative images of Ki67 (a cellular marker for proliferation) staining of PN21 kidney sections from DMSO- and VX-809-treated mice. Arrows indicate Ki67-positive cells. Pictures were acquired with a Zeiss microscope equipped with 20× objective. (FIG. 3C) Summary data for Ki67-positive cells. Columns represent averages±standard errors of DMSO (vehicle)-treated (n=3) and VX-809-treated (n=3) mice. Statistical analysis was performed using a two-tailed Student's t test. (FIG. 3D) Proliferation in PN cells. PN cells were treated with VX-809 or DMSO). The bromodeoxyuridine (BrdU) concentration in the cells was measured by using a BrdU cell proliferation assay kit (Millipore Sigma#2750) according to the manufacturer's protocol. Columns represent averages±SEs of the OD of BrdU at 450/550 […]. Data were analyzed using Student's t-test, with n=5-7. Methods were described previously (62). *P>0.05; **P<0.01;
A hallmark of the cysts in ADPKD is an increase in proliferation in response to cAMP. Therefore, it was determined whether VX-809 would affect proliferation.

A further test deals with HSP27, 70, 90 and HSP40. The experiment in a line: Western blot of heat shock proteins in kidney tissue lysates. The test is classed as in vivo. As to conditions: 30 mg/kg BW, cyst-induced mouse kidneys. The protocol:
FIG. 7A, FIG. 7B, FIG. 7C, FIG. 7D, FIG. 7E, and FIG. 7F show chaperone expression is altered in mice by VX-809. (FIG. 7A-FIG.7B) Representative Western blot images of HSP27, 70, 90 and HSP40 in lysates of kidney tissue from no cyst induced (ND), cyst induced with Doxycycline (D) or cyst induced pkd−/− mice treated with VX-809 (D+VX-809) 30 mg/kg BW. (FIG. 7C, FIG. 7D, FIG. 7E, and FIG. 7F). Columns represent averages±standard errors of HSP27, 70, 90 and HSP40 expression. Data were analyzed by non-parametric t-test. n=4 for each treated and control groups. Black lines between lanes represent representative experiments from the same gel. *P<0.05; **P<0.01;
To facilitate their growth in the kidney, cysts have developed an altered network of proteins that most likely serves to protect them from stress . Next, it was determined whether VX-809 would alter the levels of Hsps in pkd−/− mice and in PN cells. […] Hsp 27, 70 and 90 are all elevated in cystic kidneys compared to normal controls. […] There is no change in Hsp40. […] Both sets of data are consistent with an alteration in the heat shock response to cyst growth.

The next test has as its system PC2. Nature of the test: Confocal localization of PC2 with ER, Golgi and PM markers. The test is classed as cell-based. As to conditions: treated vs control cells, Pearson's correlation with markers. From the text:
FIG. 17A and FIG. 17B show images of confocal microscopy localization studies of PC2 and localization markers in control and treated cells (FIG. 17A) and graphs showing Pearson's correlation coefficient for PC2 and localization markers in control and VX-809 treated cells (FIG. 17B).
The localization of PC2 and CFTR in control cells was compared to the localization of PC2 and CFTR localization in VX-809 treated cells.

A further test deals with CFTR in PN cells. The experiment in a line: CFTR expression and biotinylation. Particulars: 10 μM, 16 h, vs control PN cells. The test is classed as cell-based, mouse. As for the experimental part:
FIG. 19A, FIG. 19B, FIG. 19C, and FIG. 19D show CFTR expression in PN cells treated with VX-809 (10 μM) for 16 h.
The expression of CFTR was evaluated in PN cells treated with VX-809 and control PN cells. PN cells were treated with 10 μM VX-809 for 16 h or a control.

Test [2] relates to PC2 in the primary cilium. Nature of the test: Confocal microscopy of PC2 in cilia of kidney sections. As to conditions: doxycycline plus VX-809 vs doxycycline plus DMSO. The test is classed as in vivo, mouse. As for the experimental part: To determine the location of PC2 in the cilia, confocal microscopy experiments using the Pkd1^fl/fl; Pax8^rtTA TetO-cre mouse model were conducted. These mice, when injected intraperitoneally (IP) with doxycycline on postnatal days (PND) 11, 12, and 13, developed multiple large cysts and large polycystic kidneys at approximately 3 weeks of age.
Mice were treated without doxycycline (NoDoxy), with doxycycline plus DMSO (Doxy), or with doxycycline plus VX809 (Doxy VX809), as indicated. PC2 staining is shown in red, acetylated (ac) αtubulin is shown in green, regions of colocalization of PC2 and ac-atubulin are shown in yellow. Scale bar is 10 μm. All pictures were taken with a 63× objective.
FIG. 21 is a graph of the percentage of cells with ciliary staining. Mice were treated without doxycycline (NoDoxy), with doxycycline plus DMSO (Doxy), or with doxycycline plus VX809 (Doxy VX809), as indicated, and kidney cells were analyzed. Pearson's coefficient was measured using at least 10 cells per image. Three animals were analyzed for each maneuver.
In normal mice PC2 is located in the primary cilium.

Consider `Cc1ccc(NC(=O)C2(c3ccc4c(c3)OC(F)(F)O4)CC2)nc1-c1cccc(C(=O)O)c1` [VX-809, lumacaftor], for which, in test [1], the “cell proliferation (Ki67-positive cells)” value is reported as “significantly inhibit cell proliferation”. In addition, in the test with HSP27, 70, 90 and HSP40, the Hsp27 expression entry is recorded as “significantly less expression”, the Hsp40 expression result was “no change”, the Hsp70 expression result is “significantly less expression” and the Hsp90 expression result is on record as “significantly less expression”. Moreover, the PC2 localization result with PC2 was “statistically significant move of PC2 from the ER to Golgi”. For the same compound, in the test on CFTR in PN cells, the CFTR expression result is “enhanced” and the “biotinylation of CFTR” value was “significantly increased”. For the same compound, in test [2], the “PC2 in the cilium” value is listed as “restores PC2 to the cilium” and the “colocalization of PC2 with the cilia marker ac-αtubulin” value is recorded as “increases colocalization”.
